# Measurements as given in BindingDB's records for doi:10.1021/jm021108n (Ghent University, 2003).
# Target: Thymidylate kinase (Homo sapiens) (UniProt P23919)
# Test: In Vitro inhibition of […] (TMPKh)
row,SMILES,Ki
1,"Cc1cn([C@H]2C[C@H](CO)[C@@H](CO)O2)c(=O)[nH]c1=O [1-(4,5-Bis-hydroxymethyl-tetrahydro-furan-2-yl)-5-methyl-1H-pyrimidine-2,4-dione]",420 µM
2,"Cc1cn([C@@H]2O[C@H](CO)[C@@H](CN)[C@H]2O)c(=O)[nH]c1=O [1-(4-Aminomethyl-3-hydroxy-5-hydroxymethyl-tetrahydro-furan-2-yl)-5-methyl-1H-pyrimidine-2,4-dione]",110 µM
3,"Cc1cn([C@H]2C[C@H](CN)[C@@H](CO)O2)c(=O)[nH]c1=O [1-(4-Aminomethyl-5-hydroxymethyl-tetrahydro-furan-2-yl)-5-methyl-1H-pyrimidine-2,4-dione]",220 µM
4,"Cc1cn([C@H]2C[C@H](CN=[N+]=[N-])[C@@H](CO)O2)c(=O)[nH]c1=O [1-(4-Azidomethyl-5-hydroxymethyl-tetrahydro-furan-2-yl)-5-methyl-1H-pyrimidine-2,4-dione]",1040 µM
5,"Cc1cn([C@H]2C[C@H](CF)[C@@H](CO)O2)c(=O)[nH]c1=O [1-(4-Fluoromethyl-5-hydroxymethyl-tetrahydro-furan-2-yl)-5-methyl-1H-pyrimidine-2,4-dione]",970 µM
6,"Cc1cn([C@@H]2O[C@H](COP(=O)(O)O)[C@@H](CN)[C@H]2O)c(=O)[nH]c1=O [Phosphoric acid mono-[3-aminomethyl-4-hydroxy-5-(5-methyl-2,4-dioxo-3,4-dihydro-2H-pyrimidin-1-yl)-tetrahydro-furan-2-ylmethyl] ester]",280 µM
7,"Cc1cn([C@H]2C[C@H](CN)[C@@H](COP(=O)(O)O)O2)c(=O)[nH]c1=O [Phosphoric acid mono-[3-aminomethyl-5-(5-methyl-2,4-dioxo-3,4-dihydro-2H-pyrimidin-1-yl)-tetrahydro-furan-2-ylmethyl] ester]",4.7 µM
8,"Cc1cn([C@H]2C[C@H](CN=[N+]=[N-])[C@@H](COP(=O)(O)O)O2)c(=O)[nH]c1=O [Phosphoric acid mono-[3-azidomethyl-5-(5-methyl-2,4-dioxo-3,4-dihydro-2H-pyrimidin-1-yl)-tetrahydro-furan-2-ylmethyl] ester]",32 µM
9,"Cc1cn([C@H]2C[C@H](CF)[C@@H](COP(=O)(O)O)O2)c(=O)[nH]c1=O [Phosphoric acid mono-[3-fluoromethyl-5-(5-methyl-2,4-dioxo-3,4-dihydro-2H-pyrimidin-1-yl)-tetrahydro-furan-2-ylmethyl] ester]",40 µM
10,"Cc1cn([C@H]2C[C@H](CO)[C@@H](COP(=O)(O)O)O2)c(=O)[nH]c1=O [Phosphoric acid mono-[3-hydroxymethyl-5-(5-methyl-2,4-dioxo-3,4-dihydro-2H-pyrimidin-1-yl)-tetrahydro-furan-2-ylmethyl] ester]",43.5 µM
